Molecules are shown by their SMILES.

The series can be described thus: gradient 5% acetonitrile 3 min, to 50% in 2 min, to 85% in 15 min, held 3 min, 100 µL/min. To be noted: column: Zorbax Extend-C18 2.1 x 50 mm; eluents: water / acetonitrile, 0.1% formic acid. Put shortly:
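Retention times of pure standards were taken from adduct peaks that were selected by computer and manually inspected. Over 3 months, mixtures of ~100 molecules were run by HPLC–quadrupole time-of-flight mass spectrometry in positive and negative ionization mode. The Zorbax Extend-C18 column (2.1 × 50 mm, 1.8 μm) ran at 100 μL/min in water and acetonitrile, each containing 0.1% formic acid, with 40 μL dead volume and 900 μL dwell volume.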
With `CN(Cc1ccccc1)c1ccc(-c2noc(CN3CCSCC3)n2)cn1`, the RP-LC retention time was 930 s.

With `c1ccc(-n2nnc(-c3noc(-c4cccnc4)n3)c2-c2ccncc2)cc1`, the RP-LC retention time worked out at 737 s.

Compound `COCCCNC(=O)c1cccnc1N1CCNC(c2ccccc2)C1` (stereo not given) showed an RP-LC retention time of 578 s.

`COc1cc(OC)c(NC(=O)Cn2nc(C(=O)N3CCCC3)c3ccccc32)cc1Cl` yielded an RP-LC retention time of 897 s.

In turn, `Cc1ccnc(N2CCCC(C(=O)N3CCC(C(N)=O)(N4CCCCC4)CC3)C2)n1` (stereo not given) came in with an RP-LC retention time of 542 s.

As to `COC(=O)c1cccc(Nc2c(-c3ccc(F)cc3)nc3cnc(Br)cn23)c1`, the RP-LC retention time amounted to 980 s.

With `Cc1ccc(CNC(=O)Cn2nc3n(c2=O)CCCCC3)cc1`, the RP-LC retention time is 675 s.

Take `CC(=O)Nc1ccc2c(c1)CN(C(=O)c1c(F)cccc1F)C(C(=O)N1CCCC1)C2` (stereo not given): the RP-LC retention time was 873 s.

In the case of `CC(Cc1ccco1)NC(=O)C(C)n1c2ccccc2c2cnn(C)c(=O)c21` (stereo not given), the RP-LC retention time came to 603 s.

In turn, `CCc1ccc(-c2csc(Nc3ccc(S(=O)(=O)Nc4cc(OC)nc(OC)n4)cc3)n2)cc1` showed an RP-LC retention time of 1150 s.

In turn, `Fc1cc(F)cc(-c2nnc(Cc3nc(-c4ccccc4F)no3)o2)c1` yielded an RP-LC retention time of 1060 s.

For `O=C(Cn1c(=O)c2nncn2c2ncccc21)NCc1ccccc1Cl`, the RP-LC retention time is 662 s.

`Cc1nc(-c2cc3cccc(C)c3nc2N2CCN(C)CC2)no1` had an RP-LC retention time of 665 s.

`CCNc1cc(-n2ccnc2)ncn1`: the RP-LC retention time is 541 s.

`COC(=O)c1ccc(-c2nc3cnccn3c2Nc2cc(C)cc(C)c2)cc1` gave an RP-LC retention time of 978 s.

As for `O=C(NCc1cccnc1)c1nc2ccccn2c1-c1ccsc1`, the RP-LC retention time was found to be 589 s.

Turning to `COc1ccccc1NC(=O)N1CCC2(CC1)NC(=O)c1ccc(Cl)cc1N2C`, the RP-LC retention time came out at 806 s.

As for `O=C(NCCS(=O)(=O)N1CCc2ccccc2C1)c1ccc([N+](=O)[O-])o1`, the RP-LC retention time amounted to 752 s.

With `Cc1cc(C)cc(NC(=O)C2CCc3sc(C(=O)N4CCOCC4)cc3C2)c1` (stereo not given), the RP-LC retention time is 856 s.

As to `Cc1ccc2c(c1)cc(S(=O)(=O)c1ccccc1)c(=O)n2CC(=O)NCC1CCCO1` (stereo not given), the RP-LC retention time was 765 s.

The compound `CC(=O)Nc1ccc(NC(=O)c2nn(-c3ccccc3)c3ccccc3c2=O)cc1` gave an RP-LC retention time of 714 s.

`CCCNC(=O)Cn1cnc2sc(C(=O)NC3CCCC(C)C3C)c(C)c2c1=O` (stereo not given) displayed an RP-LC retention time of 857 s.

Turning to `CCS(=O)(=O)N1CC(=O)N(c2ccc(C)c(C)c2)C(C)(C(=O)NC2CCCCCC2)C1` (stereo not given), the RP-LC retention time came to 979 s.

On to `COc1ccc(N2CC(c3noc(-c4ccc(C)c(C)c4)n3)CC2=O)cc1` (stereo not given), for which the RP-LC retention time came to 1030 s.

Compound `O=C(NCc1ccc(F)c(Cl)c1)c1ccc(NC(=O)C2CCC2)cc1N1CCOCC1` returned an RP-LC retention time of 909 s.

Compound `Cc1ccsc1C(=O)NCc1ccc2c(c1)ncn2C` yielded an RP-LC retention time of 597 s.

`CN(C)C[C@@H]1CN(c2ncccn2)C[C@H]1NC(=O)NCc1ccco1`: the RP-LC retention time was found to be 550 s.

`Clc1ccc2nc(-c3ccccc3)c(Nc3ccc4c(c3)OCCO4)n2c1` showed an RP-LC retention time of 746 s.

As to `Cc1ccc(CNC(=O)N2CCC3(CC2)NC(=O)c2ccccc2O3)cc1`, the RP-LC retention time was found to be 757 s.

Take `O=C(CSc1nccc2c1ccn2Cc1ccc(F)cc1)NCc1ccco1`: the RP-LC retention time was 1040 s.

Compound `O=C(O)c1cnc(N2CCOCC2)nc1-c1cccc(Cl)c1` registered an RP-LC retention time of 770 s.

For the compound `CCn1cc(C(=O)NCCn2c(C)cnc2C2CCC2)cn1`, the RP-LC retention time came to 557 s.

With `CCCn1cc(S(=O)(=O)Nc2ccc(C)cc2)c2cccnc21`, the RP-LC retention time was 937 s.

With `CCOC(=O)C1CCCN(S(=O)(=O)c2ccc(Cl)c(-c3nnc(-c4ccccc4)o3)c2)C1` (stereo not given), the RP-LC retention time is 1120 s.

The compound `COc1ccc(Cn2cccc2-c2nc(C)no2)cc1` displayed an RP-LC retention time of 1020 s.

These data come from the METLIN SMRT retention time set (Domingo-Almenara et al. 2019).
